{"source": "patent US10624875B2", "about": "“Methods and compositions for treating schizophrenia” (The Johns Hopkins University, priority 2012, dated 2020)", "key": {"aMCI subjects [1]": {"tested_on": "aMCI subjects", "test": "explicit 3-alternative forced choice task (lure images), cognitive performance", "format": "in vivo, human", "settings": "125 mg twice a day for two weeks, versus placebo", "excerpt": "There are various tests known in the art for assessing cognitive function in humans, for example and without limitation, the clinical global impression of change scale (CIBIC-plus scale); the Mini Mental State Exam (MMSE); the Neuropsychiatric Inventory (NPI); the Clinical Dementia Rating Scale (CDR); the Cambridge Neuropsychological Test Automated Battery (CANTAB); the Sandoz Clinical Assessment-Geriatric (SCAG), the Buschke Selective Reminding Test (Buschke and Fuld, 1974); the Verbal Paired Associates subtest; the Logical Memory subtest; the Visual Reproduction subtest of the Wechsler Memory Scale-Revised (WMS-R) (Wechsler, 1997); the Benton Visual Retention Test, or MATRICS consensus neuropsychological test battery which includes tests of working memory, speed of processing, attention, verbal learning, visual learning, reasoning and problem solving and social cognition. […]\nAs described above, the drug treatment period is the two weeks preceding Visit 1 or 2 (with the two week period preceding the other Visit being the placebo phase). For the subjects receiving the drug treatment, half a scored 250 mg tablet of levetiracetam is used to achieve a dose of […], which is approximately 3.6 mg/kg/day (assuming an average adult human weight of 70 kg). […]"}, "aMCI subjects [2]": {"tested_on": "aMCI subjects", "test": "Benton Visual Retention Test", "format": "in vivo, human", "settings": "125 mg twice a day for two weeks", "description": "A within-subjects trial of 8 weeks duration, involving 17 amnestic MCI (aMCI) subjects and 17 age-matched controls with a low dose treatment of levetiracetam is conducted. During the course of the study, each aMCI subject receives both drug and placebo treatments separately in two periods of two weeks each, with the order of treatments among different aMCI subjects counterbalanced (see FIG. 7). Age-matched control subjects treated with placebo serve as a further control. Cognitive testing and fMRI imaging data are obtained from the subjects after each two week period of drug/placebo treatment.\nAll participants undergo neuropsychological evaluation at the time of assessment for treatment efficacy (Visits 1 and 2), as well as at the Baseline Visit. […]\nAs described above, the drug treatment period is the two weeks preceding Visit 1 or 2 (with the two week period preceding the other Visit being the placebo phase). For the subjects receiving the drug treatment, half a scored 250 mg tablet of levetiracetam is used to achieve a dose of […], which is approximately 3.6 mg/kg/day (assuming an average adult human weight of 70 kg)."}}, "data": [{"smiles": "CC[C@@H](C(N)=O)N1CCCC1=O", "note": "[levetiracetam, (2S)-2-(2-oxopyrrolidin-1-yl) butanamide]", "values": [{"measurement": "performance in the explicit 3-alternative forced choice task", "setting": "aMCI subjects [1]", "value": "improves significantly"}, {"measurement": "performance in Benton Visual Retention Test", "setting": "aMCI subjects [2]", "value": "fail to rescue performance"}]}]}
